Biological target: T1, Cytochrome P450 165B3 (Amycolatopsis orientalis, UniProt Q8RN04)
T1 sequence (Q8RN04 whole entry): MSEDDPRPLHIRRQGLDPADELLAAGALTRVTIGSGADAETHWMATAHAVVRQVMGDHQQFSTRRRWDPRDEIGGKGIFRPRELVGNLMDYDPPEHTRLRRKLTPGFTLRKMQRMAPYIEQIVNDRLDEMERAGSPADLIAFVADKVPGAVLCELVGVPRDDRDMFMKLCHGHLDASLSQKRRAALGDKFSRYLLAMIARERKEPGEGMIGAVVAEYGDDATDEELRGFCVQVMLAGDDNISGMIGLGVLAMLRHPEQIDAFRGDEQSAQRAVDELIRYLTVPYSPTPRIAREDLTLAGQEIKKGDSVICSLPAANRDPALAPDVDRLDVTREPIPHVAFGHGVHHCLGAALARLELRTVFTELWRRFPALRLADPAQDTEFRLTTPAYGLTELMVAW
Experiment: Binding affinity to Amycolatopsis orientalis OxyB

Row | Kd | SMILES
1 | 17 µM | CN[C@H](CC(C)C)C(=O)N[C@H](Cc1ccc(O)cc1)C(=O)N[C@@H](CC(N)=O)C(=O)N[C@@H](C(=O)N[C@@H](C(=O)N[C@@H](Cc1ccc(O)cc1)C(=O)O)c1ccc(O)cc1)c1ccc(O)cc1
2 | 35 µM | CN[C@H](CC(C)C)C(=O)N[C@H](Cc1ccc(O)cc1)C(=O)N[C@@H](CC(N)=O)C(=O)N[C@@H](C(=O)N[C@@H](C(=O)N[C@H](Cc1ccc(O)cc1)C(=O)O)c1ccc(O)cc1)c1ccc(O)cc1

Source: ChEMBL document CHEMBL1142389, “New insights into the first oxidative phenol coupling reaction during vancomycin biosynthesis” (Bioorg Med Chem Lett, 2008)
